Consider three compounds from ChEMBL document CHEMBL1154684, “Cytotoxicity of new n-butylamino and sulfur-containing derivatives of polyfluorinated 1,4-naphthoquinone” (Eur J Med Chem, 2010).

Experiment [1] deals with Salmonella typhimurium. Kind of experiment: Antimutagenic activity in Salmonella Typhimurium TA102 assessed as inhibition of H2O2-induced mutagenesis at 23.5 uM after 48 hrs by Ames test. Type of experiment: functional, Salmonella enterica subsp. enterica serovar Typhimurium. The note with it: Salmonella enterica, TA102, 48 h. (In general: In the Ames test, an excess of revertant colonies over the control signals mutagenicity.)

Experiment [2] relates to Salmonella typhimurium. As to the kind of experiment: Antimutagenic activity in Salmonella Typhimurium TA102 assessed as inhibition of H2O2-induced mutagenesis at 0.05 to […] after 48 hrs by Ames test. Type of experiment: functional, organism-based. The following applies: Salmonella enterica subsp. enterica serovar Typhimurium.
Experiment [3] relates to RPMI-8226. Kind of experiment: Cytotoxicity against human RPMI8226 at 25 ug/ml after 72 hrs by MTT assay. The following applies: RPMI-8226, 72 h. Type of experiment: functional.
Experiment [4] has as its system MCF7. As to the kind of experiment: Cytotoxicity against human MCF7 at 25 ug/ml after 72 hrs by MTT assay. Type of experiment: functional, cell-based. The note with it: MCF7, 72 h. For orientation: Formazan colour is commonly taken as a measure of viable cells.
For experiment [5], the system named is Salmonella typhimurium. As to the kind of experiment: Antimutagenic activity in Salmonella Typhimurium TA102 assessed as inhibition of H2O2-induced mutagenesis at 26.9 uM after 48 hrs by Ames test. Type of experiment: functional, organism-based, Salmonella enterica subsp. enterica serovar Typhimurium.
Experiment [6] can be described thus: Cytotoxicity against mouse LMTK at 173 uM after 72 hrs by MTT assay.
Experiment [7] concerns MCF7. As to the kind of experiment: Cytotoxicity against human MCF7 after 72 hrs by MTT assay. Type of experiment: functional, cell-based.
Experiment [8] has as its system RPMI-8226. Kind of experiment: Cytotoxicity against human RPMI8226 after 72 hrs by MTT assay. Type of experiment: functional, cell-based.

SMILES strings stand for the structures. Values after ≈ are worked out from the molar mass of the structure shown. Active and inactive are the calls of the source. No cut-off for these calls is given here.

Regarding `CCCCNC1=C(F)C(=O)c2c(F)c(NCCCC)c(F)c(NCCCC)c2C1=O`, the inhibition (as a rule, the relative decrease from the control value, in per cent) at 23.5 µM in the experiment on Salmonella typhimurium [1] stood at 55%. The outcome with Salmonella typhimurium [2] was Active. The inhibition at 25 µg/mL stood at 30% in the experiment on RPMI-8226 [3] and 45% in the experiment with MCF7 [4].

In the case of `CCCCNC1=C(F)C(=O)c2c(F)c(NCCCC)c(F)c(F)c2C1=O`, the Inhibition – broadly, the change of the read-out against control, counted positive when it falls – in the experiment with Salmonella typhimurium [5] is listed as 81%. Further, the outcome in the experiment on Salmonella typhimurium [2] was Active. In addition, the inhibition at 25 µg/mL was determined as 17% in the experiment on RPMI-8226 [3] and 10% with MCF7 [4].

In the case of `CC1=C(SCCO)C(=O)c2c(F)c(F)c(F)c(F)c2C1=O`, the IC50 (commonly the point on the concentration scale where inhibition reaches its midpoint) in experiment [6] was “Not Active”; in the experiment with MCF7 [7], 173 µg/mL (≈ 540 µM); in the experiment with RPMI-8226 [8] it was 14.8 µg/mL (≈ 46.2 µM).
